From ChEMBL document CHEMBL1142146, “Quinupristin-dalfopristin nonsusceptibility in pneumococci from sickle cell disease patients” (2007)
In brackets after ≈: the same amount, converted by molar mass.

How the values were obtained:
Type in all cases: functional
Streptococcus pneumoniae [1] = assay: Antibacterial activity against Pneumococcus DAW8 isolated from sickle cell disease patient
Streptococcus pneumoniae [2] = assay: Antibacterial activity against Pneumococcus DAW6 isolated from sickle cell disease patient
Streptococcus pneumoniae [3] = assay: Antibacterial activity against Pneumococcus DAW2 isolated from sickle cell disease patient
Streptococcus pneumoniae [4] = assay: Antibacterial activity against Pneumococcus DAW9 isolated from sickle cell disease patient
Streptococcus pneumoniae [5] = assay: Antibacterial activity against Pneumococcus DAW12 isolated from sickle cell disease patient
Streptococcus pneumoniae [6] = assay: Antibacterial activity against Pneumococcus DAW13 isolated from sickle cell disease patient
Streptococcus pneumoniae [7] = assay: Antibacterial activity against Pneumococcus DAW14 isolated from sickle cell disease patient
Streptococcus pneumoniae [8] = assay: Antibacterial activity against Pneumococcus DAW15 isolated from sickle cell disease patient
Streptococcus pneumoniae [9] = assay: Antibacterial activity against Pneumococcus DAW19 isolated from sickle cell disease patient
Streptococcus pneumoniae [10] = assay: Antibacterial activity against Pneumococcus DAW22 isolated from sickle cell disease patient
Streptococcus pneumoniae [11] = assay: Antibacterial activity against Pneumococcus DAW24 isolated from sickle cell disease patient
Streptococcus pneumoniae [12] = assay: Antibacterial activity against Pneumococcus DAW26 isolated from sickle cell disease patient
Streptococcus pneumoniae [13] = assay: Antibacterial activity against Pneumococcus DAW27 isolated from sickle cell disease patient
Streptococcus pneumoniae [14] = assay: Antibacterial activity against Pneumococcus DAW51 isolated from sickle cell disease patient
Streptococcus pneumoniae [15] = assay: Antibacterial activity against Pneumococcus DAW53 isolated from sickle cell disease patient
Streptococcus pneumoniae [16] = assay: Antibacterial activity against Pneumococcus DAW57 isolated from sickle cell disease patient
Streptococcus pneumoniae [17] = assay: Antibacterial activity against Pneumococcus DAW61 isolated from sickle cell disease patient
Streptococcus pneumoniae [18] = assay: Antibacterial activity against Pneumococcus DAW65 isolated from sickle cell disease patient
Streptococcus pneumoniae [19] = assay: Antibacterial activity against Pneumococcus DAW66 isolated from sickle cell disease patient
Streptococcus pneumoniae [20] = assay: Antibacterial activity against Pneumococcus DAW70 isolated from sickle cell disease patient
Streptococcus pneumoniae [21] = assay: Antibacterial activity against Pneumococcus DAW75 isolated from sickle cell disease patient
Streptococcus pneumoniae [22] = assay: Antibacterial activity against Pneumococcus DAW86 isolated from sickle cell disease patient
Streptococcus pneumoniae [23] = assay: Antibacterial activity against Pneumococcus CDC001 isolated from sickle cell disease patient
Streptococcus pneumoniae [24] = assay: Antibacterial activity against Pneumococcus CDC018 isolated from sickle cell disease patient
Streptococcus pneumoniae [25] = assay: Antibacterial activity against Pneumococcus CDC023 isolated from sickle cell disease patient
Streptococcus pneumoniae [26] = assay: Antibacterial activity against Pneumococcus CDC050 isolated from sickle cell disease patient
Streptococcus pneumoniae [27] = assay: Antibacterial activity against Pneumococcus CDC063 isolated from sickle cell disease patient
Streptococcus pneumoniae [28] = assay: Antibacterial activity against Pneumococcus CDC068 isolated from sickle cell disease patient
Streptococcus pneumoniae [29] = assay: Antibacterial activity against Pneumococcus DAW62 isolated from sickle cell disease patient
Streptococcus pneumoniae [30] = assay: Antibacterial activity against Pneumococcus DAW67 isolated from sickle cell disease patient
Streptococcus pneumoniae [31] = assay: Antibacterial activity against Pneumococcus DAW68 isolated from sickle cell disease patient
Streptococcus pneumoniae [32] = assay: Antibacterial activity against Pneumococcus CDC013 isolated from sickle cell disease patient
Streptococcus pneumoniae [33] = assay: Antibacterial activity against Pneumococcus CDC020 isolated from sickle cell disease patient

Compound	MIC (Streptococcus pneumoniae [1]) [µg/mL]	MIC (Streptococcus pneumoniae [2]) [µg/mL]	MIC (Streptococcus pneumoniae [3]) [µg/mL]	MIC (Streptococcus pneumoniae [4]) [µg/mL]	MIC (Streptococcus pneumoniae [5]) [µg/mL]	MIC (Streptococcus pneumoniae [6]) [µg/mL]	MIC (Streptococcus pneumoniae [7]) [µg/mL]	MIC (Streptococcus pneumoniae [8]) [µg/mL]	MIC (Streptococcus pneumoniae [9]) [µg/mL]	MIC (Streptococcus pneumoniae [10]) [µg/mL]	MIC (Streptococcus pneumoniae [11]) [µg/mL]	MIC (Streptococcus pneumoniae [12]) [µg/mL]	MIC (Streptococcus pneumoniae [13]) [µg/mL]	MIC (Streptococcus pneumoniae [14]) [µg/mL]	MIC (Streptococcus pneumoniae [15]) [µg/mL]	MIC (Streptococcus pneumoniae [16]) [µg/mL]	MIC (Streptococcus pneumoniae [17]) [µg/mL]	MIC (Streptococcus pneumoniae [18]) [µg/mL]	MIC (Streptococcus pneumoniae [19]) [µg/mL]	MIC (Streptococcus pneumoniae [20]) [µg/mL]	also measured
CCC[C@@H]1C[C@@H](C(=O)N[C@@H]([C@H]2O[C@H](SC)[C@H](O)[C@@H](O)[C@H]2O)[C@H](C)Cl)N(C)C1 [CLINDAMYCIN]	0.25 (≈ 0.588 µM)	0.038 (≈ 0.0894 µM)	0.25 (≈ 0.588 µM)	256 (≈ 602 µM)	0.25 (≈ 0.588 µM)	0.25 (≈ 0.588 µM)	0.25 (≈ 0.588 µM)	0.38 (≈ 0.894 µM)	0.19 (≈ 0.447 µM)	256 (≈ 602 µM)	0.25 (≈ 0.588 µM)	0.25 (≈ 0.588 µM)	256 (≈ 602 µM)	0.25 (≈ 0.588 µM)	0.25 (≈ 0.588 µM)	256 (≈ 602 µM)	0.5 (≈ 1.18 µM)	0.25 (≈ 0.588 µM)	0.25 (≈ 0.588 µM)	0.38 (≈ 0.894 µM)	MIC (Streptococcus pneumoniae [21]): 0.125 µg/mL (≈ 0.294 µM); MIC (Streptococcus pneumoniae [22]): 0.25 µg/mL (≈ 0.588 µM); MIC (Streptococcus pneumoniae [23]): 0.19 µg/mL (≈ 0.447 µM); MIC (Streptococcus pneumoniae [24]): 256 µg/mL (≈ 602 µM); MIC (Streptococcus pneumoniae [25]): 0.125 µg/mL (≈ 0.294 µM); MIC (Streptococcus pneumoniae [26]): 0.25 µg/mL (≈ 0.588 µM); MIC (Streptococcus pneumoniae [27]): 0.25 µg/mL (≈ 0.588 µM); MIC (Streptococcus pneumoniae [28]): 0.25 µg/mL (≈ 0.588 µM)
CC[C@H]1OC(=O)[C@H](C)[C@@H](O[C@H]2C[C@@](C)(OC)[C@@H](O)[C@H](C)O2)[C@H](C)[C@@H](O[C@@H]2O[C@H](C)C[C@H](N(C)C)[C@H]2O)[C@](C)(O)C[C@@H](C)C(=O)[C@H](C)[C@@H](O)[C@]1(C)O [ERYTHROMYCIN]	0.125 (≈ 0.17 µM)	0.25 (≈ 0.341 µM)	0.125 (≈ 0.17 µM)	256 (≈ 349 µM)	0.19 (≈ 0.259 µM)	4 (≈ 5.45 µM)	0.19 (≈ 0.259 µM)	0.19 (≈ 0.259 µM)	24 (≈ 32.7 µM)	256 (≈ 349 µM)	0.125 (≈ 0.17 µM)	0.125 (≈ 0.17 µM)	256 (≈ 349 µM)	0.19 (≈ 0.259 µM)	0.25 (≈ 0.341 µM)	256 (≈ 349 µM)	256 (≈ 349 µM)	0.19 (≈ 0.259 µM)	0.19 (≈ 0.259 µM)	0.19 (≈ 0.259 µM)	MIC (Streptococcus pneumoniae [29]): 0.125 µg/mL (≈ 0.17 µM); MIC (Streptococcus pneumoniae [30]): 0.125 µg/mL (≈ 0.17 µM); MIC (Streptococcus pneumoniae [31]): 0.125 µg/mL (≈ 0.17 µM); MIC (Streptococcus pneumoniae [21]): 0.19 µg/mL (≈ 0.259 µM); MIC (Streptococcus pneumoniae [22]): 0.19 µg/mL (≈ 0.259 µM); MIC (Streptococcus pneumoniae [23]): 0.19 µg/mL (≈ 0.259 µM); MIC (Streptococcus pneumoniae [32]): 0.125 µg/mL (≈ 0.17 µM); MIC (Streptococcus pneumoniae [24]): 256 µg/mL (≈ 349 µM); MIC (Streptococcus pneumoniae [33]): 256 µg/mL (≈ 349 µM); MIC (Streptococcus pneumoniae [25]): 0.125 µg/mL (≈ 0.17 µM); MIC (Streptococcus pneumoniae [26]): 0.25 µg/mL (≈ 0.341 µM); MIC (Streptococcus pneumoniae [27]): 32 µg/mL (≈ 43.6 µM); MIC (Streptococcus pneumoniae [28]): 0.19 µg/mL (≈ 0.259 µM)
